From patent publication US12545706B2, “Pharmaceutical composition for preventing or treating Behcet's disease and rheumatoid arthritis, containing peptide or mixture thereof as active ingredient” (AJOU UNIVERSITY INDUSTRY-ACADEMIC COOPERATION FOUNDATION, priority 2019, dated 2026)
Where a SMILES comes first, the peptide text is derived from it.

Experiments:
[1] = test system: mouse model with collagen-induced arthritis; assay: Severity of arthritis in mouse model with collagen-induced arthritis; format: in vivo
Description: To prepare a mouse model with rheumatoid arthritis, subcutaneous injection (first immunization) was performed on the tail of a group of 8-week-old male ICR normal mice (average weight: 20 g) injected with 50 μg of a mixture obtained by mixing type II collagen with Complete Freund's adjuvant (CFA) and paraffin oil in the same amount. Two weeks later, the same substance was subcutaneously injected into the tail in the same manner to prepare an animal model with rheumatoid arthritis.
In the same manner as in Example 2, the mixture of P1, P2 and P4 peptides (P124) prepared in Example 1 was administered to the skin of mice as an external skin preparation.
In addition, the peptide mixture (P124) was treated as an external skin preparation once a day for 10 consecutive days, the arthritis treatment effect was checked after 5 weeks, and the results were shown in FIG. 5.

[2] = test system: CD4+CD25+ cells, CD4+CD25+FoxP3+ cells, IL-17+ cells; assay: Flow cytometry (FACS) of cells isolated from treated arthritis mouse model; format: in vivo; parameters: IL-17: unit not given here
[3] = Retention of fluorescently labeled peptide in abdominal cavity (FACS of intraperitoneal macrophages); format: in vivo, mouse; details: for stability in vivo: conclusion from FIG. 9 and FIG. 10
Description: After intraperitoneal injection of the fluorescently labeled peptide P4 into mice, intraperitoneal macrophages were isolated, and the frequency of fluorescently labeled macrophages was analyzed by FACS to measure the retention time of the peptides in the abdominal cavity, which was shown in FIG. 9.
In addition, the P1, P2, and P4 peptides were labeled with each different fluorescence, and the three types were mixed and administered to normal mice.

[4] = test system: mouse animal model with Behcet's disease (HSV type 1 infected ICR mice); assay: Therapeutic effect on skin ulcers and skin inflammation in mouse animal model with Behcet's disease; format: in vivo; details: peptides administered respectively; symptoms visually checked; FIG. 1
Description: Male ICR mice (4-5 weeks of age) were infected with HSV type 1 (1×10^6, 20 μL) grown in Vero cells as previously reported (S. Sohn et al., Eur J Dermatol, 8 (1): 21-23, 1998). 10 days after the first virus inoculation, the mice were infected twice by inoculating the virus again and monitored for 32 weeks. Animals were treated according to the guidelines provided by Institutional Animal Care and Use Committee (IACUC) of School of Medicine at Ajou University. The study protocol was approved by IACUC (Approval No.: AMC-2016-0010).
Symptoms include skin ulcers, skin pustule, genital ulcers, erythema, mouth ulcers, ear inflammation, arthritis, red eyes (left and right), decreased visual acuity (left and right), weight loss, and facial swelling. Mouth ulcers, genital ulcers, skin ulcers, and eye symptoms were classified as major symptoms while the other symptoms were mild.
Mice showing one or more major symptoms with one mild symptom were considered as BD mice, the score for each symptom was calculated as 1, and the sum of the scores was used to determine the severity of BD. When symptoms disappeared or the size of the lesion was reduced by 20% or more, it was classified as symptom improved state. The disease severity score for BD was calculated based on the BD Activity Index as described in the BD Activity Form (www.behcet.ws/pdf/BehcetsDiseaseActivityForm.pdf). […]

[5] = FACS frequency, Table 1, in % (unit assumed)
[6] = intraperitoneal injection, intraperitoneal macrophages, FIG. 9

In the case of `CN(Cc1cnc2nc(N)nc(N)c2n1)c1ccc(C(=O)N[C@@H](CCC(=O)O)C(=O)O)cc1` [Methotrexate], the “duration of the effect on severity score for arthritis” value ([1]; FIG. 4, 10 weeks follow-up) is reported as “effect decreased after 7 weeks”, the “severity score for arthritis” value ([1]; external skin preparation, compared to PBS control group, followed 10 weeks, FIG. 4) is reported as “reduction in the severity score for arthritis was also shown” and the IL-17 ([2]; FACS frequency, Table 1) is reported as 13.15 ± 1.34. For the same compound, the “CD4 + CD25+” value [2, 5] was 3.7 ± 1.13, the “CD4 + CD25 + FoxP3+” value [2, 5] was 1.45 ± 0.49 and the ROR-gammaT ([2]; FACS, Table 1) was 6.2 ± 0.42.

For `CC[C@H](C)[C@H](NC(=O)[C@@H](N)CC(C)C)C(=O)N[C@@H](CS)C(=O)N1CCC[C@H]1C(=O)N[C@@H](CCC(=O)O)C(=O)N[C@@H](CCCCN)C(=O)N[C@@H](Cc1ccc(O)cc1)C(=O)N[C@@H](CS)C(=O)N[C@@H](CC(N)=O)C(=O)N[C@@H](CCCCN)C(=O)N[C@H](C(=O)N[C@@H](Cc1c[nH]cn1)C(=O)N[C@H](C(=O)O)[C@@H](C)O)C(C)C` [P1, LICPEKYCNKVHT] (H-LICPEKYCNKVHT-OH; N-terminus and C-terminus assumed), the stability in vivo [3] was “stably maintained”.

For `CC(C)[C@H](NC(=O)[C@H](CCCCN)NC(=O)[C@H](CC(N)=O)NC(=O)[C@H](CS)NC(=O)[C@@H](N)Cc1ccc(O)cc1)C(=O)N[C@@H](Cc1c[nH]cn1)C(=O)N[C@H](C(=O)N[C@@H](CS)C(=O)N[C@@H](CCCNC(=N)N)C(=O)N[C@@H](CC(N)=O)C(=O)NCC(=O)O)[C@@H](C)O` [P2, YCNKVHTCRNG] (H-YCNKVHTCRNG-OH; N-terminus and C-terminus assumed), the stability in vivo [3] was “stably maintained”.

With `CC[C@H](C)[C@H](NC(=O)[C@H](CC(N)=O)NC(=O)[C@H](CCC(=O)O)NC(=O)CNC(=O)[C@H](CC(N)=O)NC(=O)[C@H](CCCNC(=N)N)NC(=O)[C@H](CS)NC(=O)[C@@H](NC(=O)[C@@H](N)Cc1c[nH]cn1)[C@@H](C)O)C(=O)N[C@@H](CS)C(=O)N[C@@H](Cc1ccccc1)C(=O)O` [P4, HTCRNGENICF] (H-HTCRNGENICF-OH; N-terminus and C-terminus assumed) the stability in vivo [3] was “stably maintained”, the “time at which frequency of cells including the peptide was the highest” value [3, 6] was 24 h and the “time up to which frequency of cells including the peptide was maintained” value [3, 6] was “up to 72 hours”.

With ENICFKRFYEGNLLGKRYPRGCA [P5] the “skin ulcers and skin inflammation” value [4] was “alleviated”.
